Values after ≈ are worked out from the molar mass of the structure shown.
Key:
Format in all cases: functional
Staphylococcus aureus [1] = test: Antibacterial activity against methicillin-resistant Staphylococcus aureus 614019 clinical isolate after 20 to 24 hrs by two-fold microdilution method
Staphylococcus aureus [2] = test: Antibacterial activity against methicillin-resistant Staphylococcus aureus 20106-2 clinical isolate after 20 to 24 hrs by two-fold microdilution method
Staphylococcus aureus [3] = test: Antibacterial activity against methicillin-resistant Staphylococcus aureus 20534 clinical isolate after 20 to 24 hrs by two-fold microdilution method
Staphylococcus aureus [4] = test: Antibacterial activity against methicillin-resistant Staphylococcus aureus 221022 clinical isolate after 20 to 24 hrs by two-fold microdilution method
Staphylococcus aureus [5] = test: Antibacterial activity against methicillin-resistant Staphylococcus aureus 111625 clinical isolate after 20 to 24 hrs by two-fold microdilution method
Staphylococcus aureus [6] = test: Antibacterial activity against methicillin-resistant Staphylococcus aureus 30116-1 clinical isolate after 20 to 24 hrs by two-fold microdilution method
Staphylococcus aureus [7] = test: Antibacterial activity against methicillin-resistant Staphylococcus aureus 10281-2 clinical isolate after 20 to 24 hrs by two-fold microdilution method
Staphylococcus aureus [8] = test: Antibacterial activity against methicillin-resistant Staphylococcus aureus 202045 clinical isolate after 20 to 24 hrs by two-fold microdilution method
Escherichia coli = test: Antibacterial activity against Escherichia coli ATCC 25922 after 20 to 24 hrs by two-fold microdilution method
Staphylococcus aureus [9] = test: Antibacterial activity against methicillin-resistant Staphylococcus aureus 112047 clinical isolate after 20 to 24 hrs by two-fold microdilution method
Staphylococcus aureus [10] = test: Antibacterial activity against methicillin-resistant Staphylococcus aureus 1107027 clinical isolate after 20 to 24 hrs by two-fold microdilution method
Staphylococcus aureus [11] = test: Antibacterial activity against methicillin-resistant Staphylococcus aureus 131215 clinical isolate after 20 to 24 hrs by two-fold microdilution method
Staphylococcus aureus [12] = test: Antibacterial activity against methicillin-resistant Staphylococcus aureus 912014 clinical isolate after 20 to 24 hrs by two-fold microdilution method
Staphylococcus aureus [13] = test: Antibacterial activity against methicillin-resistant Staphylococcus aureus 110834 clinical isolate after 20 to 24 hrs by two-fold microdilution method
Staphylococcus aureus [14] = test: Antibacterial activity against methicillin-resistant Staphylococcus aureus 111423 clinical isolate after 20 to 24 hrs by two-fold microdilution method
Staphylococcus aureus [15] = test: Antibacterial activity against methicillin-resistant Staphylococcus aureus 531220 clinical isolate after 20 to 24 hrs by two-fold microdilution method
Staphylococcus aureus [16] = test: Antibacterial activity against methicillin-resistant Staphylococcus aureus 120827 clinical isolate after 20 to 24 hrs by two-fold microdilution method
Staphylococcus aureus [17] = test: Antibacterial activity against methicillin-resistant Staphylococcus aureus 519030 clinical isolate after 20 to 24 hrs by two-fold microdilution method
Staphylococcus aureus [18] = test: Antibacterial activity against methicillin-resistant Staphylococcus aureus clinical isolate after 20 to 24 hrs by two-fold microdilution method
Staphylococcus aureus [19] = test: Antibacterial activity against methicillin-resistant Staphylococcus aureus 625032 clinical isolate after 20 to 24 hrs by two-fold microdilution method
Staphylococcus aureus [20] = test: Antibacterial activity against […] Staphylococcus aureus ATCC 25923 after 20 to 24 hrs by two-fold microdilution method
Staphylococcus aureus [21] = test: Antibacterial activity against methicillin-resistant Staphylococcus aureus 414244 clinical isolate after 20 to 24 hrs by two-fold microdilution method
Staphylococcus aureus [22] = test: Antibacterial activity against methicillin-resistant Staphylococcus aureus 1026211 clinical isolate after 20 to 24 hrs by two-fold microdilution method
Staphylococcus aureus [23] = test: Antibacterial activity against methicillin-resistant Staphylococcus aureus 1025022 clinical isolate after 20 to 24 hrs by two-fold microdilution method
Staphylococcus aureus [24] = test: Antibacterial activity against methicillin-resistant Staphylococcus aureus 530231 clinical isolate after 20 to 24 hrs by two-fold microdilution method
Enterococcus faecalis = test: Antibacterial activity against Enterococcus faecalis ATCC 29212 after 20 to 24 hrs by two-fold microdilution method
Staphylococcus aureus [25] = test: Antibacterial activity against methicillin-resistant Staphylococcus aureus 1212221 clinical isolate after 20 to 24 hrs by two-fold microdilution method
Staphylococcus aureus [26] = test: Antibacterial activity against methicillin-resistant Staphylococcus aureus 212014 clinical isolate after 20 to 24 hrs by two-fold microdilution method
Staphylococcus aureus [27] = test: Antibacterial activity against methicillin-resistant Staphylococcus aureus 112430 clinical isolate after 20 to 24 hrs by two-fold microdilution method
Staphylococcus aureus [28] = test: Antibacterial activity against methicillin-resistant Staphylococcus aureus 11819 clinical isolate after 20 to 24 hrs by two-fold microdilution method
Staphylococcus aureus [29] = test: Antibacterial activity against methicillin-resistant Staphylococcus aureus 908046 clinical isolate after 20 to 24 hrs by two-fold microdilution method
Staphylococcus aureus [30] = test: Antibacterial activity against methicillin-resistant Staphylococcus aureus 1019240 clinical isolate after 20 to 24 hrs by two-fold microdilution method
Staphylococcus aureus [31] = test: Antibacterial activity against methicillin-resistant Staphylococcus aureus 724244 clinical isolate after 20 to 24 hrs by two-fold microdilution method
[32] = tested on: Staphylococcus haemolyticus; test: Antibacterial activity against Staphylococcus haemolyticus CICC 10373 after 20 to 24 hrs by two-fold microdilution method
Staphylococcus aureus [33] = test: Antibacterial activity against methicillin-resistant Staphylococcus aureus 219236 clinical isolate after 20 to 24 hrs by two-fold microdilution method
Streptococcus pneumoniae = test: Antibacterial activity against Streptococcus pneumoniae ATCC 6305 after 20 to 24 hrs by two-fold microdilution method
Staphylococcus aureus [34] = test: Antibacterial activity against methicillin-resistant Staphylococcus aureus 118038 clinical isolate after 20 to 24 hrs by two-fold microdilution method
Staphylococcus aureus [35] = test: Antibacterial activity against methicillin-resistant Staphylococcus aureus 1012039 clinical isolate after 20 to 24 hrs by two-fold microdilution method
Staphylococcus aureus [36] = test: Antibacterial activity against methicillin-resistant Staphylococcus aureus 224001 clinical isolate after 20 to 24 hrs by two-fold microdilution method
Staphylococcus aureus [37] = test: Antibacterial activity against methicillin-resistant Staphylococcus aureus 123152 clinical isolate after 20 to 24 hrs by two-fold microdilution method
Staphylococcus aureus [38] = test: Antibacterial activity against methicillin-resistant Staphylococcus aureus 523005 clinical isolate after 20 to 24 hrs by two-fold microdilution method
Staphylococcus aureus [39] = test: Antibacterial activity against methicillin-resistant Staphylococcus aureus 221014 clinical isolate after 20 to 24 hrs by two-fold microdilution method
Staphylococcus aureus [40] = test: Antibacterial activity against methicillin-resistant Staphylococcus aureus 10844 clinical isolate after 20 to 24 hrs by two-fold microdilution method
Staphylococcus aureus [41] = test: Antibacterial activity against methicillin-resistant Staphylococcus aureus 921026 clinical isolate after 20 to 24 hrs by two-fold microdilution method
Staphylococcus aureus [42] = test: Antibacterial activity against methicillin-resistant Staphylococcus aureus 304243 clinical isolate after 20 to 24 hrs by two-fold microdilution method
Staphylococcus aureus [43] = test: Antibacterial activity against methicillin-resistant Staphylococcus aureus ATCC 43300 after 20 to 24 hrs by two-fold microdilution method
Staphylococcus aureus [44] = test: Antibacterial activity against methicillin-resistant Staphylococcus aureus 531026 clinical isolate after 20 to 24 hrs by two-fold microdilution method

O=C1c2cccnc2C(=O)c2c1c(C(=O)OCCCCN1CCOCC1)c1ccc(Br)cn21
MIC (Staphylococcus aureus [1]): 0.5 µg/mL (≈ 0.976 µM)
MIC (Staphylococcus aureus [2]): 0.5 µg/mL (≈ 0.976 µM)
MIC (Staphylococcus aureus [3]): 1 µg/mL (≈ 1.95 µM)
MIC (Staphylococcus aureus [4]): 0.5 µg/mL (≈ 0.976 µM)
MIC (Staphylococcus aureus [5]): 0.5 µg/mL (≈ 0.976 µM)
MIC (Staphylococcus aureus [6]): 0.5 µg/mL (≈ 0.976 µM)
MIC (Staphylococcus aureus [7]): 0.5 µg/mL (≈ 0.976 µM)
MIC (Staphylococcus aureus [8]): 0.25 µg/mL (≈ 0.488 µM)
MIC (Escherichia coli): > 16 µg/mL
MIC (Staphylococcus aureus [9]): 0.25 µg/mL (≈ 0.488 µM)
MIC (Staphylococcus aureus [10]): 0.25 µg/mL (≈ 0.488 µM)
MIC (Staphylococcus aureus [11]): 0.125 µg/mL (≈ 0.244 µM)
MIC (Staphylococcus aureus [12]): 0.5 µg/mL (≈ 0.976 µM)
MIC (Staphylococcus aureus [13]): 0.25 µg/mL (≈ 0.488 µM)
MIC (Staphylococcus aureus [14]): 8 µg/mL (≈ 15.6 µM)
MIC (Staphylococcus aureus [15]): 0.25 µg/mL (≈ 0.488 µM)
MIC (Staphylococcus aureus [16]): 0.25 µg/mL (≈ 0.488 µM)
MIC (Staphylococcus aureus [17]): 1 µg/mL (≈ 1.95 µM)
MIC50 (Staphylococcus aureus [18]): 0.5 µg/mL (≈ 0.976 µM)
MIC90 (Staphylococcus aureus [18]): 1 µg/mL (≈ 1.95 µM)
MIC (Staphylococcus aureus [19]): 0.5 µg/mL (≈ 0.976 µM)
MIC (Staphylococcus aureus [20]): 0.063 µg/mL (≈ 0.123 µM)
MIC (Staphylococcus aureus [21]): 1 µg/mL (≈ 1.95 µM)
MIC (Staphylococcus aureus [22]): 0.063 µg/mL (≈ 0.123 µM)
MIC (Staphylococcus aureus [23]): 0.125 µg/mL (≈ 0.244 µM)
MIC (Staphylococcus aureus [24]): 0.5 µg/mL (≈ 0.976 µM)
MIC (Enterococcus faecalis): 0.25 µg/mL (≈ 0.488 µM)
MIC (Staphylococcus aureus [25]): 0.125 µg/mL (≈ 0.244 µM)
MIC (Staphylococcus aureus [26]): 0.125 µg/mL (≈ 0.244 µM)
MIC (Staphylococcus aureus [27]): 0.5 µg/mL (≈ 0.976 µM)
MIC (Staphylococcus aureus [28]): 0.125 µg/mL (≈ 0.244 µM)
MIC (Staphylococcus aureus [29]): 0.125 µg/mL (≈ 0.244 µM)
MIC (Staphylococcus aureus [30]): 1 µg/mL (≈ 1.95 µM)
MIC (Staphylococcus aureus [31]): 0.125 µg/mL (≈ 0.244 µM)
MIC [32]: 0.125 µg/mL (≈ 0.244 µM)
MIC (Staphylococcus aureus [33]): 0.063 µg/mL (≈ 0.123 µM)
MIC (Streptococcus pneumoniae): 4 µg/mL (≈ 7.81 µM)
MIC (Staphylococcus aureus [34]): 0.5 µg/mL (≈ 0.976 µM)
MIC (Staphylococcus aureus [35]): 0.5 µg/mL (≈ 0.976 µM)
MIC (Staphylococcus aureus [36]): 1 µg/mL (≈ 1.95 µM)
MIC (Staphylococcus aureus [37]): 0.25 µg/mL (≈ 0.488 µM)
MIC (Staphylococcus aureus [38]): 0.5 µg/mL (≈ 0.976 µM)
MIC (Staphylococcus aureus [39]): 1 µg/mL (≈ 1.95 µM)
MIC (Staphylococcus aureus [40]): 0.5 µg/mL (≈ 0.976 µM)
MIC (Staphylococcus aureus [41]): 0.5 µg/mL (≈ 0.976 µM)
MIC (Staphylococcus aureus [42]): 0.125 µg/mL (≈ 0.244 µM)
MIC (Staphylococcus aureus [43]): 0.063 µg/mL (≈ 0.123 µM)
MIC (Staphylococcus aureus [44]): 0.25 µg/mL (≈ 0.488 µM)

O=C1c2cccnc2C(=O)c2c1c(C(=O)OCCCCCN1CCOCC1)c1ccc(Br)cn21
MIC (Staphylococcus aureus [1]): 0.031 µg/mL (≈ 0.0589 µM)
MIC (Staphylococcus aureus [2]): 0.125 µg/mL (≈ 0.237 µM)
MIC (Staphylococcus aureus [3]): 0.125 µg/mL (≈ 0.237 µM)
MIC (Staphylococcus aureus [4]): 0.031 µg/mL (≈ 0.0589 µM)
MIC (Staphylococcus aureus [5]): ≤ 0.0078 µg/mL
MIC (Staphylococcus aureus [6]): ≤ 0.0078 µg/mL
MIC (Staphylococcus aureus [7]): ≤ 0.0078 µg/mL
MIC (Staphylococcus aureus [8]): 0.016 µg/mL (≈ 0.0304 µM)
MIC (Escherichia coli): 8 µg/mL (≈ 15.2 µM)
MIC (Staphylococcus aureus [9]): 0.031 µg/mL (≈ 0.0589 µM)
MIC (Staphylococcus aureus [10]): ≤ 0.0078 µg/mL
MIC (Staphylococcus aureus [11]): 0.016 µg/mL (≈ 0.0304 µM)
MIC (Staphylococcus aureus [12]): 0.063 µg/mL (≈ 0.12 µM)
MIC (Staphylococcus aureus [13]): 0.031 µg/mL (≈ 0.0589 µM)
MIC (Staphylococcus aureus [14]): 16 µg/mL (≈ 30.4 µM)
MIC (Staphylococcus aureus [15]): ≤ 0.0078 µg/mL
MIC (Staphylococcus aureus [16]): ≤ 0.0078 µg/mL
MIC (Staphylococcus aureus [17]): 0.063 µg/mL (≈ 0.12 µM)
MIC50 (Staphylococcus aureus [18]): 0.031 µg/mL (≈ 0.0589 µM)
MIC90 (Staphylococcus aureus [18]): 0.125 µg/mL (≈ 0.237 µM)
MIC (Staphylococcus aureus [19]): 0.063 µg/mL (≈ 0.12 µM)
MIC (Staphylococcus aureus [20]): 0.016 µg/mL (≈ 0.0304 µM)
MIC (Staphylococcus aureus [21]): 0.063 µg/mL (≈ 0.12 µM)
MIC (Staphylococcus aureus [22]): ≤ 0.0078 µg/mL
MIC (Staphylococcus aureus [23]): 0.031 µg/mL (≈ 0.0589 µM)
MIC (Staphylococcus aureus [24]): 0.031 µg/mL (≈ 0.0589 µM)
MIC (Enterococcus faecalis): 0.25 µg/mL (≈ 0.475 µM)
MIC (Staphylococcus aureus [25]): 0.031 µg/mL (≈ 0.0589 µM)
MIC (Staphylococcus aureus [26]): 0.063 µg/mL (≈ 0.12 µM)
MIC (Staphylococcus aureus [27]): ≤ 0.0078 µg/mL
MIC (Staphylococcus aureus [28]): ≤ 0.0078 µg/mL
MIC (Staphylococcus aureus [29]): 0.031 µg/mL (≈ 0.0589 µM)
MIC (Staphylococcus aureus [30]): 0.031 µg/mL (≈ 0.0589 µM)
MIC (Staphylococcus aureus [31]): ≤ 0.0078 µg/mL
MIC [32]: 1 µg/mL (≈ 1.9 µM)
MIC (Staphylococcus aureus [33]): 0.031 µg/mL (≈ 0.0589 µM)
MIC (Streptococcus pneumoniae): 2 µg/mL (≈ 3.8 µM)
MIC (Staphylococcus aureus [34]): ≤ 0.0078 µg/mL
MIC (Staphylococcus aureus [35]): 0.125 µg/mL (≈ 0.237 µM)
MIC (Staphylococcus aureus [36]): 0.25 µg/mL (≈ 0.475 µM)
MIC (Staphylococcus aureus [37]): 0.031 µg/mL (≈ 0.0589 µM)
MIC (Staphylococcus aureus [38]): 0.031 µg/mL (≈ 0.0589 µM)
MIC (Staphylococcus aureus [39]): 0.031 µg/mL (≈ 0.0589 µM)
MIC (Staphylococcus aureus [40]): ≤ 0.0078 µg/mL
MIC (Staphylococcus aureus [41]): ≤ 0.0078 µg/mL
MIC (Staphylococcus aureus [42]): 0.031 µg/mL (≈ 0.0589 µM)
MIC (Staphylococcus aureus [43]): 0.031 µg/mL (≈ 0.0589 µM)
MIC (Staphylococcus aureus [44]): ≤ 0.0078 µg/mL

Reference: ChEMBL document CHEMBL4004803, “Syntheses and antibacterial activity of soluble 9-bromo substituted indolizinoquinoline-5,12-dione derivatives” (Eur J Med Chem, 2017)
